Measurements published in US10556879B2, “Retinoid compound, preparation method therefor, intermediates thereof and application thereof” (SHANGHAI INSTITUTE OF ORGANIC CHEMISTRY, CHINESE ACADEMY OF …, priority 2016, dated 2020).
Like-named read-outs stand apart in the source and are kept apart here.

Test system: tumor-repopulating cells of B16-F1 melanoma
Assay: Inhibitory activity on proliferation of tumor-repopulating cells (TRCs) of B16-F1 melanoma in 3D fibrin gel
Format: cell-based
Details: Mus musculus; for IC50: B16-F1, dose-response curve, colony tumor volume, read-out: IC50 of inhibition on TRCs of B16-F1 melanoma/μM
Procedure: B16-F1 Melanoma cells were incubated with 3D fibrin gel medium (90-Pa) for 5 days, and the desired tumor-repopulating cells of melanoma were screened (Nat. Mater. 2012, 11, 734). Subsequently, the culture medium was respectively treated with collagenase and neutral protease II, and the tumor-repopulating cells of B16-F1 melanoma were released, then the obtained repopulating cells were transferred to a freshly prepared medium to be resuspended and maintained at single-cell state. The tumor-repopulating cells of B16-F1 melanoma were inoculated in 3D fibrin gel medium (90-Pa) for 5 days, with 0.1% DMSO as the negative control group, Tazarotene and Bexarotene as the positive control drugs respectively, […] for 5 days. The colony tumor size was measured and calculated, and the inhibition rate of each drug on the tumor-repopulating cells of B16-F1 melanoma was calculated. The results of inhibitory activity of the compound of the present invention on the proliferation of tumor-repopulating cells of B16-F1 melanoma were shown in Table 2 below.

[1] = B16-F1, 120 h, 10 μM, incubated 5 days, colony tumor size, read-out: Inhibition rate on TRCs of B16-F1 melanoma at a concentration of 10 μM (%)
[2] = B16-F1, 10 μM (Table 3), read-out: Inhibition rate on TRCs of B16-F1 melanoma at a concentration of 10 μM/%

Row | Structure (SMILES) | inhibition at 10 µM [1] | other results
1 | CCOC(=O)c1ccc(C#Cc2ccc3c(c2)C(C)(C)CCS3)cc1NC(C)=O [WYC-217, ethyl 2-acetamido-4-((4,4-dimethylthiochroman-6-yl)ethynyl)benzoate] | 90.3% | –
2 | CC(=O)Nc1cc(C(=O)O)ccc1C#Cc1ccc2c(c1)C(C)(C)CCS2 [WYC-319, 3-acetamido-4-((4,4-dimethylthiochroman-6-yl)ethynyl)benzoic Acid] | 65.8% | –
3 | CCOC(=O)c1cnc(C#Cc2ccc3c(c2)C(C)(C)CC[S@@+]3[O-])nc1 [WYC-209B, ethyl 2-((4,4-dimethyl-1R-oxothiochroman-6-yl)ethynyl)pyrimidin-5-carboxylate] | 98.7% | IC50: 0.22 µM; inhibition at 10 µM [2]: 98.7%
4 | CC1(C)CCSc2ccc(C#Cc3ccc(C(=O)O)c(F)c3F)cc21 [WYC-314, 2,3-difluoro-4((4,4-dimethylthiochroman-6-yl)ethynyl)benzoic Acid] | 70.1% | –
5 | COC(=O)c1ccc(C#Cc2ccc3c(c2)C(c2ccccc2)=CCC3(C)C)cc1O [WYC-301, methyl 4-((5,5-dimethyl-8-phenyl-5,6-dihydronaphth-2-yl)ethynyl)-2-hydroxybenzoate] | 34.4% | –
6 | CC1(C)CCC(C)(C)c2cc(C#Cc3ccc(C(=O)O)c(N)c3)ccc21 [WYC-330, 2-amino-4-((5,5,8,8-tetramethyl-5,6,7,8-tetrahydronaphth-2-yl)ethynyl)benzoic Acid] | 79% | –
7 | CCOC(=O)c1ccc(C#Cc2ccc3c(c2)C(C)(C)CCS3)c([N+](=O)[O-])c1 [WYC-308, ethyl 3-nitro-4-((4,4-dimethylthiochroman-6-yl)ethynyl)benzoate] | 71.9% | –
8 | CC1(C)CCSc2ccc(C#Cc3ccc(C(=O)O)cc3F)cc21 [WYC-310, 3-fluoro-4((4,4-dimethylthiochroman-6-yl)ethynyl)benzoic Acid] | 76.8% | –
9 | CC1(C)CC=C(c2ccccc2)c2cc(C#Cc3ccc(C(=O)O)c(F)c3)ccc21 [WYC-306, 4-((5,5-dimethyl-8-phenyl-5,6-dihydronaphth-2-yl)ethynyl)-2-fluorobenzic Acid] | 15.2% | –
10 | CCOC(=O)c1ccc(C#Cc2ccc3c(c2)C(C)(C)CCS3)cc1Cl [WYC-325, ethyl 2-chloro-4-((4,4-dimethylthiochroman-6-yl)ethynyl)benzoate] | 74.2% | –
11 | CC1(C)CCSc2ccc(C#Cc3cnc(C(=O)O)cn3)cc21 [WYC-323, 5-((4,4-dimethylthiochroman-6-yl)ethynyl)pyrazin-2-carboxylic Acid] | 76% | –
12 | CNc1cc(C#Cc2ccc3c(c2)C(C)(C)CCS3)ccc1C(=O)OC [WYC-219, methyl 2-methylamino-4-((4,4-dimethylthiochroman-6-yl)ethynyl)benzoate] | 64.8% | –
13 | CCOC(=O)c1ccc(C#Cc2ccc3c(c2)C(C)(C)CC[S+]3[O-])c(F)c1 (centres unmarked) [WYC-312, ethyl 3-fluoro-4-((4,4-dimethyl-1-oxothiochroman-6-yl)ethynyl)benzoate] | 71% | –
14 | CC1(C)CCC(C)(C)c2cc(C#Cc3ccc(C(=O)O)c(O)c3)ccc21 [WYC-335, 2-hydroxy-4-((5,5,8,8-tetramethyl-5,6,7,8-tetrahydronaphth-2-yl)ethynyl)benzoic Acid] | 86.9% | –
15 | C=C(c1ccc(C(=O)O)cc1)c1cc2c(cc1C)C(C)(C)CCC2(C)C [Bexarotene, reference compound] | 63.3% | –
16 | CC1(C)CCC(C)(C)c2cc(C#Cc3ccc(C(=O)O)nc3)ccc21 [WYC-337, 5-((5,5,8,8-tetramethyl-5,6,7,8-tetrahydronaphth-2-yl)ethynyl)pyridin-2-carboxylic Acid] | 87.5% | –

Row | Structure (SMILES) | inhibition at 10 µM [1] | other results
17 | CCOC(=O)c1ccc(C#Cc2ccc3c(c2)C(C)(C)CCS3)nc1 [Tazarotene, reference compound] | 67.6% | –
18 | CC1(C)CCSc2ccc(C#Cc3ccc(C(=O)O)c(N)c3)cc21 [WYC-212, 2-amino-4-((4,4-dimethylthiochroman-6-yl)ethynyl)benzoic Acid] | 93.2% | IC50: 2.28 µM; inhibition at 10 µM [2]: 93.2%
19 | COC(=O)c1ncc(C#Cc2ccc3c(c2)C(C)(C)CCS3)cn1 [WYC-204, methyl 5-((4,4-dimethylthiochroman-6-yl)ethynyl)pyrimidin-2-carboxylate] | 25.6% | –
20 | CCOC(=O)c1ccc(C#Cc2ccc3c(c2)C(C)(C)CCS3)c(F)c1F [WYC-313, ethyl 2,3-difluoro-4((4,4-dimethylthiochroman-6-yl)ethynyl)benzoate] | 62.2% | –
21 | CC1(C)CCSc2ccc(C#Cc3ccc(C(=O)O)c(O)c3)cc21 [WYC-105, 4-((4,4-dimethylthiochroman-6-yl)ethynyl)-2-hydroxybenzoic Acid] | – | inhibition at 10 µM (B16-F1, 120 h, read-out: Inhibition rate on TRCs of B16-F1 melanoma at a concentration of 10 μM (%)): 64.1%
22 | CCOC(=O)c1ccc(C#Cc2ccc3c(c2)C(c2ccccc2)=CCC3(C)C)cc1F [WYC-305, ethyl 4-((5,5-dimethyl-8-phenyl-5,6-dihydronaphth-2-yl)ethynyl)-2-fluorobenzoate] | 26% | –
23 | CC1(C)CCC(C)(C)c2cc(C#Cc3ccc(C#N)cn3)ccc21 [WYC-333, 2-((5,5,8,8-tetramethyl-5,6,7,8-tetrahydronaphth-2-yl)ethynyl)-5-cyanopyridine] | 69.1% | –
24 | CC1(C)CCSc2ccc(C#Cc3ccc(C(=O)O)c(Cl)c3)cc21 [WYC-327, 2-chloro-4-((4,4-dimethylthiochroman-6-yl)ethynyl)benzoic Acid] | 75.7% | –
25 | CCOC(=O)c1cnc(C#Cc2ccc3c(c2)C(C)(C)CCC3(C)C)cn1 [WYC-342, ethyl 5-((5,5,8,8-tetramethyl-5,6,7,8-tetrahydronaphth-2-yl)ethynyl)pyrazin-2-carboxylate] | 77.6% | –
26 | CCOC(=O)c1ccc(C#Cc2ccc3c(c2)C(C)(C)CC[S+]3[O-])c(F)c1F (centres unmarked) [WYC-315, ethyl 2,3-difluoro-4-((4,4-dimethyl-1-oxothiochroman-6-yl)ethynyl)benzoate] | 70.1% | –
27 | CC(=O)Nc1cc(C#Cc2ccc3c(c2)C(C)(C)CCS3)ccc1C(=O)O [WYC-213, 2-acetamido-4-((4,4-dimethylthiochroman-6-yl)ethynyl)benzoic Acid] | 71.1% | –
28 | CCOC(=O)c1ccc(C#Cc2ccc3c(c2)C(c2ccccc2)=CCC3(C)C)cc1O [WYC-302, ethyl 4-((5,5-dimethyl-8-phenyl-5,6-dihydronaphth-2-yl)ethynyl)-2-hydroxybenzoate] | 21.9% | –
29 | COC(=O)c1ncc(C#Cc2ccc3c(c2)C(C)(C)CCC3(C)C)cn1 [WYC-338, methyl 5-((5,5,8,8-tetramethyl-5,6,7,8-tetrahydronaphth-2-yl)ethynyl)pyrimidin-2-carboxylate] | 69% | –
30 | COC(=O)c1ccc(C#Cc2ccc3c(c2)C(C)(C)CCS3)cc1N [WYC-220, methyl 2-amino-4-((4,4-dimethylthiochroman-6-yl)ethynyl)benzoate] | 65.5% | –
31 | CC1(C)CCC(C)(C)c2cc(C#Cc3cnc(C#N)nc3)ccc21 [WYC-329, 2-cyano-5-((5,5,8,8-tetramethyl-5,6,7,8-tetrahydronaphth-2-yl)ethynyl)pyrimidine] | 94.5% | IC50: 0.5 µM; inhibition at 10 µM [2]: 94.5%
32 | CCOC(=O)c1cnc(C#Cc2ccc3c(c2)C(C)(C)CCS3)nc1 [WYC-203, ethyl 2-((4,4-dimethylthiochroman-6-yl)ethynyl)pyrimidin-5-carboxylate] | 90.5% | –
